# Assay results as given in US20230068020A1, “MACROLIDE COMPOUND AND ITS USE OF TREATMENT CHRONIC RESPIRATORY DISEASE” (priority 2020, published 2023).
# How the values were obtained:
# Type in all cases: cell-based
# THP-1 cell [1] = experiment: Differentiation of monocyte to macrophage in THP-1 cell line; conditions: for EC50: THP-1 differentiate to macrophage, PMA, 96 hrs incubation; for Maximal activation level / Emax: ratio of best effect of compound to that of erythromycin 100 uM, THP-1 differentiation; for Emax: read-out: Maximal activation level
# Method: The THP-1 cell line was purchased from ATCC (American Type Culture Collection, Manassas, Va.). Cells were maintained in growth medium (RPMI-1640) with supplemented with 10% heat inactivated bovine serum, 100× Glutamax medium and 0.05 mM β-Mercaptoethanol at 37° C. under 5% CO2. Compounds were dissolved in 0.1% DMSO. Erythromycin was used as a positive control.
# For the assessment of the effect of compounds of the present invention on differentiation of monocyte to macrophage in THP-1 cell line, cells were collected and centrifuged at 900 rpm for 4 minutes. The cell density was adjusted to 2.5×10^5/mL. cell suspension of 400 μL was added to each well of 48-well plate following the plate layout. PMA 1 mg, a compound can induce monocyte differentiation, was dissolved in 10 mL DMSO to form 100 μg/mL solution and aliquote it into 1 mL per vial. 1 mL solution can be further aliquoted into 10 μL per vial and stored the aliquots at −20° C. Make 10-fold dilution of PMA with DMSO and then 500-fold dilution with complete medium. 50 μL solution were then added to each well of 48-well plate following the plate layout. Erythromycin and compounds of examples at stock concentration of 10 mM was serially diluted at 10-fold in DMSO. 50 μL solution was added to each well of 48-well plate following the plate layout. After 96 hrs incubation at 37° C., 5% CO2, the plate was washed with DPBS for three times to remove non-adherent cells for three times. Complete medium 180 μL and alarmar blue 20 μL was added to each well. The fluorescent intensity was read at excitation 530 nm and emission 590 nm using PerkinElmer Victor3 after 3 hours plate incubation.
# The differentiation activity of compounds of Examples is compared to that of 100 μM erythromycin and the results are shown in FIG. 1 and Table 3.
# THP-1 cell [2] = experiment: Cell viability (LD50) in THP-1 differentiation test
# Method: The medium lethal dose (LD50) is the dosage of a compound that reduces the cell viability by 50%, and is determined using non-linear logistic regression.
# [3] = system: IL-8 expression in BEAS-2B cell; experiment: LPS induced IL-8 release by BEAS-2B (ELISA); conditions: for Maximum Inhibition: IL-8 expression in BEAS-2B cells, LPS; for IC10: concentration inhibiting IL-8 production on BEAS-2B by 10%, LPS 20 μg/mL
# Method: The inhibitory effect of compounds of Examples on the IL-8 expression in BEAS-2B cell was tested using the following method. BEAS-2B was purchased from ATCC (American Type Culture Collection, Manassas, Va.). Cells were maintained in growth medium (LHC-9) and cultured at 37° C. under 5% CO2. Compounds were dissolved in 0.1% DMSO. Erythromycin was used as a positive control.
# For the assessment of the effect of compounds of Examples on IL-8 expression inhibition in BEAS-2B cell line, cells were plated in 24 well plate at a density of 100,000/mL, in a final volume of 1 mL of assay medium. Cells were incubated at 37° C., 5% CO2 for 1 day. After the incubation, compounds were added at day 2 and LPS was added at day 3. A compound source plate was prepared by triplicate five-point 10-fold or 2-fold serial dilutions in DMSO, beginning at 1 mM (final top concentration of compounds of Examples in the assay was 100 μM and the DMSO was 0.1%). The positive control consisted of cells treated with 100 μM erythromycin and negative control was consisted of 0.1% DMSO treated cells. LPS stock solution at 5 mg/mL was made by dissolving 10 mg of LPS powder into 2 mL of ddH2O and aliquoted to 100 μL per vial. Final concentration of LPS in the assay was […] by making 125-fold dilution of stock solution with medium.
# Specific immunoreactivity for IL-8 in culture supernatants were measured by a commercially available ELISA kits (R&D Systems, Inc., Minneapolis, Minn.). Each sample was assayed in duplicates as recommended by the manufacture. The concentration of compounds of Examples inhibiting IL-8 production on BEAS-2B by 10% was estimated from a 4-parametric of the normalized dose response curve. (IC10)
# BEAS-2B cell = experiment: Cell viability (LD10) in BEAS-2B IL-8 test; conditions: BEAS-2B cell viability
# Source text: The lethal dose (LD10) is the dosage of a compound that reduces the cell viability by […], and is estimated from non-linear logistic regression.
# [4] = system: Acinetobacter baumanii ATCC 17978; experiment: Antibacterial activity, agar dilution MIC; conditions: Acinetobacter baumannii, ATCC17978, 20-24 hrs incubation, read-out: minimum inhibitory concentration MIC
# Method: (§1) The antibacterial activity of Erythromycin and compounds of examples were evaluated by the agar dilution method, following the guidelines of the CLSI. […] Briefly, bacteria were grown overnight in adapted media (MHIIA with 5% of sheep blood for Streptococcus pneumoniae and Haemophilus influenzae, and MHIIA for the other bacteria strains) at 35° C., 5% CO2.
# (§2) Cultures were centrifuged at 3000×g for 15 min. Pellets were diluted with 5 mls cold PBS and the OD600nm was adjusted to 10^8 CFU.mL^−1 with a spectrometer. Bacteria were then added to 96-well test plates. Compounds were diluted in DMSO in a 2 fold steps from 20 mg/ml in DMSO in 96 well plated and transferred to the test plate. During the incubation, the plate was maintained at 35° C., 5% CO2.
# (§3) The MICs for Erythromycin and compounds of examples were determined after 20-24 hrs incubation.
# [5] = system: Acinetobacter baumannii ATCC-BAA-1605; experiment: Antibacterial activity, agar dilution MIC; conditions: ATCCBAA1605, 20-24 hrs incubation, read-out: minimum inhibitory concentration MIC
# Method: as §1, §2, §3
# [6] = system: Enterococcus faecalis ATCC 29212; experiment: Antibacterial activity, agar dilution MIC; conditions: ATCC29212, 20-24 hrs incubation, read-out: minimum inhibitory concentration MIC
# Method: as §1, §2, §3
# [7] = system: Haemophilus influenzae ATCC 49247; experiment: Antibacterial activity, agar dilution MIC; conditions: ATCC49247, 20-24 hrs incubation, read-out: minimum inhibitory concentration MIC
# Method: as §1, §2, §3
# [8] = system: Moraxella catarrhalis ATCC 43617; experiment: Antibacterial activity, agar dilution MIC; conditions: ATCC43617, 20-24 hrs incubation, read-out: minimum inhibitory concentration MIC
# Method: as §1, §2, §3
# [9] = system: Staphylococcus aureus ATCC 29213; experiment: Antibacterial activity, agar dilution MIC; conditions: ATCC29213, 20-24 hrs incubation, read-out: minimum inhibitory concentration MIC
# Method: as §1, §2, §3
# [10] = system: Staphylococcus aureus NRS 384; experiment: Antibacterial activity, agar dilution MIC; conditions: NRS384, 20-24 hrs incubation, read-out: minimum inhibitory concentration MIC
# Method: as §1, §2, §3
# [11] = system: Streptococcus pneumoniae ATCC 49619; experiment: Antibacterial activity, agar dilution MIC; conditions: ATCC49619, 20-24 hrs incubation, read-out: minimum inhibitory concentration MIC
# Method: as §1, §2, §3
# [12] = system: Streptococcus pneumoniae ATCC 6301; experiment: Antibacterial activity, agar dilution MIC; conditions: ATCC6301, 20-24 hrs incubation, read-out: minimum inhibitory concentration MIC
# Method: as §1, §2, §3
# [13] = system: Streptococcus pyogenes ATCC BAA-572; experiment: Antibacterial activity, agar dilution MIC; conditions: ATCCBAA572, 20-24 hrs incubation, read-out: minimum inhibitory concentration MIC
# Method: as §1, §2, §3
# [14] = dosage that reduces the cell viability by 50%, THP-1
compound,measurement,setting,value
CC[C@H]1OC(=O)[C@H](C)[C@@H](OC2CC(C)(OC)C(O)C(C)O2)[C@H](C)[C@@H](OC2CC(N(C)C(C)C)CC(C)O2)[C@@]2(C)CC(C)=C(O2)[C@H](C)[C@@H](O)[C@]1(C)O (stereo partly shown) [LY101-24],EC50,THP-1 cell [1],6.8 ± 1.4 µM
same,Maximal activation level,THP-1 cell [1],7.0 ± 1.6
same,LD50,THP-1 cell [2]; [14],56.9 ± 14.0 µM
same,Maximum Inhibition,[3],42%
same,IC10,[3],10 µM
same,LD10,BEAS-2B cell,50 µM
CC[C@H]1OC(=O)[C@H](C)[C@@H](OC2CC(C)(OC)C(O)C(C)O2)[C@H](C)[C@@H](OC2CC(N(C)C(C)=O)CC(C)O2)[C@@](C)(O)C[C@@H](C)CN(C)[C@H](C)[C@@H](O)[C@]1(C)O (stereo partly shown) [LY101-48],EC50,THP-1 cell [1]; Homo sapiens,18.5 ± 4.2 µM
same,Emax,THP-1 cell [1]; Homo sapiens,420 ± 110%
same,LD50,THP-1 cell [2]; human,111.0 ± 13.6 µM
CC[C@H]1OC(=O)[C@H](C)[C@@H](OC2CC(C)(OC)C(O)C(C)O2)[C@H](C)[C@@H](OC2CC(N(C)C)CC(C)O2)[C@@](C)(O)C[C@@H](C)CN(C)[C@H](C)[C@@H](O)[C@]1(C)O (stereo partly shown) [LY101-44],EC50,THP-1 cell [1]; Homo sapiens,1.2 ± 0.2 µM
same,Emax,THP-1 cell [1]; Homo sapiens,450 ± 90%
same,LD50,THP-1 cell [2]; human,20.4 ± 8.4 µM
CC[C@H]1OC(=O)[C@H](C)[C@@H](OC2CC(C)(OC)C(O)C(C)O2)[C@H](C)[C@@H](OC2CC(NC)CC(C)O2)[C@@]2(C)CC(C)=C(O2)[C@H](C)[C@@H](O)[C@]1(C)O (stereo partly shown) [LY101-6],EC50,THP-1 cell [1],11.5 ± 3.2 µM
same,Maximal activation level,THP-1 cell [1],3.9 ± 0.8
same,LD50,THP-1 cell [2]; [14],103.2 ± 11.4 µM
CC[C@H]1OC(=O)[C@H](C)[C@@H](OC2CC(C)(OC)C(O)C(C)O2)[C@H](C)[C@@H](OC2CC(N(C)C(C)=O)CC(C)O2)[C@@]2(C)CC(C)=C(O2)[C@H](C)[C@@H](O)[C@]1(C)O (stereo partly shown) [LY101-27],EC50,THP-1 cell [1],12.2 ± 4.6 µM
same,Maximal activation level,THP-1 cell [1],5.3 ± 1.5
same,LD50,THP-1 cell [2]; [14],121.1 ± 7.8 µM
same,Maximum Inhibition,[3],40%
same,IC10,[3],10 µM
same,LD10,BEAS-2B cell,100 µM
CC[C@H]1OC(=O)[C@H](C)[C@@H](OC2CC(C)(OC)C(O)C(C)O2)[C@H](C)[C@@H](OC2CC(N(C)C(C)C)CC(C)O2)[C@@](C)(O)C[C@@H](C)CN(C)[C@H](C)[C@@H](O)[C@]1(C)O (stereo partly shown) [LY101-47],EC50,THP-1 cell [1]; Homo sapiens,4.3 ± 1.8 µM
same,Emax,THP-1 cell [1]; Homo sapiens,310 ± 110%
same,LD50,THP-1 cell [2]; human,64.7 ± 17.9 µM
"CC[C@H]1OC(=O)[C@H](C)[C@@H](O[C@H]2C[C@@](C)(OC)[C@@H](O)[C@H](C)O2)[C@H](C)[C@@H](O[C@H]2C[C@@H](N(C)C)C[C@@H](C)O2)[C@](C)(O)C[C@@H](C)C(=O)[C@H](C)[C@@H](O)[C@]1(C)O [LY101-2, (3R,4S,5S,6R,9R,11R,12R,13S,14R)-6-(((2S,4S,6R)-4-(dimethylamino)-6-methyltetrahydro-2H-pyran-2-yl)oxy)-14-ethyl-7,12,13-trihydroxy-4-(((2R,4R,5S,6S)-5-hydroxy-4-methoxy-4,6-dimethyltetrahydro-2H-pyran-2-yl)oxy)-3,5,7,9,11,13-hexamethyloxacyclotetradecane-2,10-dione]",MIC,[4],> 128 µg/mL
same,MIC,[5],> 128 µg/mL
same,MIC,[6],> 128 µg/mL
same,MIC,[7],> 128 µg/mL
same,MIC,[8],> 128 µg/mL
same,MIC,[9],64 µg/mL
same,MIC,[10],> 128 µg/mL
same,MIC,[11],16 µg/mL
same,MIC,[12],64 µg/mL
same,MIC,[13],64 µg/mL
same,EC50,THP-1 cell [1]; Homo sapiens,0.3 ± 0.03 µM
same,Emax,THP-1 cell [1]; Homo sapiens,650 ± 170%
same,LD50,THP-1 cell [2]; human,4.6 ± 1.3 µM
CC[C@H]1OC(=O)[C@H](C)[C@@H](O)[C@H](C)[C@@H](OC2CC(N(C)C)CC(C)O2)[C@@](C)(O)C[C@@H](C)/C(=N\OCOCCOC)[C@H](C)[C@@H](O)[C@]1(C)O (stereo partly shown) [LY101-40],EC50,THP-1 cell [1]; Homo sapiens,106 µM
same,Emax,THP-1 cell [1]; Homo sapiens,180%
same,LD50,THP-1 cell [2]; human,100 µM
CC[C@H]1OC(=O)[C@H](C)[C@@H](OC2CC(C)(OC)C(O)C(C)O2)[C@H](C)[C@@H](OC2CC(N(C)C(C)=O)CC(C)O2)[C@@](C)(O)C[C@@H](C)[C@H](O)[C@H](C)[C@@H](O)[C@]1(C)O (stereo partly shown) [LY101-33],EC50,THP-1 cell [1]; Homo sapiens,22.6 ± 5.7 µM
same,Emax,THP-1 cell [1]; Homo sapiens,314 ± 1%
same,LD50,THP-1 cell [2]; human,110.0 ± 12.1 µM
same,Maximum Inhibition,[3],25%
same,IC10,[3],20 µM
same,LD10,BEAS-2B cell,60 µM
CC[C@H]1OC(=O)[C@H](C)[C@@H](OC2CC(C)(OC)C(O)C(C)O2)[C@H](C)[C@@H](OC2CC(NC)CC(C)O2)[C@@](C)(O)C[C@@H](C)[C@H](O)[C@H](C)[C@@H](O)[C@]1(C)O (stereo partly shown) [LY101-31],EC50,THP-1 cell [1]; Homo sapiens,32.8 ± 2.5 µM
same,Emax,THP-1 cell [1]; Homo sapiens,620 ± 150%
same,LD50,THP-1 cell [2]; human,115.0 ± 10.4 µM
CC[C@H]1OC(=O)[C@H](C)[C@@H](OC2CC(C)(OC)C(O)C(C)O2)[C@H](C)[C@@H](OC2CC(N(C)C)CC(C)O2)[C@@](C)(O)CC(C)[C@H](N)[C@H](C)[C@@H](O)[C@]1(C)O (stereo partly shown) [LY101-30],EC50,THP-1 cell [1]; Homo sapiens,36.8 ± 20.1 µM
same,Emax,THP-1 cell [1]; Homo sapiens,610 ± 120%
same,LD50,THP-1 cell [2]; human,65.3 ± 7.1 µM
